In patent publication US8440800B2, “Compositions for reducing cell adhesion to bubbles” (The Ohio State University Research Foundation, priority 2006, dated 2013):
Where two headings read alike, the source gives them in different places.

How the values were obtained:
[1] = tested on: Chinese Hamster Ovary cells (CHO) cell line K1; assay: Fluorescent cytotoxicity screening, 96-well plates, calcein AM; format: cell-based
Protocol: (§1) Chinese Hamster Ovary cells (CHO) cell line K1 (ATCC CCL-61) were used. The cells were initially cultured in Ham F-12 culture medium supplemented with 10% v/v fetal bovine serum (Sigma Aldrich Co., St. Louis, Mo.) in T-75 flasks. Then the cells were gradually adapted to chemically-defined medium (CD CHO-A, Invitrogen, Carlsbad, Calif.), which contain no PF-68. The cells were subcultured every 3-4 days and maintained at 37° C. incubator with 5% CO2. All the cultures were anchorage-dependent.
The materials were compared at the same concentration relative to the specific surfactants critical micelle concentration, CMC, i.e., 0.01 CMC or 0.1 CMC. In order to minimize the effect of potential adsorption during filter sterilization, the concentrated material solutions were applied, and then diluted to desired concentration at time of use.
Black, clear-bottom 96-well plates (Fisher Scientific, Hampton, N.H.) were used in the screening experiments. In each well, 150 μl cell suspensions with a total cell number of approximately 10^4 were inoculated along with the test materials and subsequently cultured in a 37° C. incubator with 5% CO2. After 48 hours, the supernatant was carefully removed while the attached CHO cells remained at the bottom of the well. 100 μl of 4 μM calcein AM solution (Invitrogen, Carlsbad, Calif.), a fluorescence probe, was added to each well and incubated for one hour at 37° C. in order to quickly assess cell growth (Yang et al., 2002). Calcein AM is an esterase substrate which can be converted into a polar, fluorescent product by an intracellular enzyme. The fluorescence density was read by a Cytofluor 4000 (Applied Biosystems, Foster City, Calif.). Six replications were performed for each condition (type of material and concentration) and the positions on the 96 well plates were randomized. A reasonable linear relationship between cell number (less than 5×10^5 per well) and fluorescence density was confirmed before screening experiments; however, a control was created with each specific experiment.

[2] = CMC and static surface tension, maximum bubble pressure method; format: physicochemical; conditions: for CMC: 37° C., CD CHO-A medium; for CMC SURFACE TENSION: cell culture medium at 37° C.
Protocol: (§2) The CMC depends on temperature and solution components. Given the significant number of components in typical cell culture media, the CMC of the comparative materials and the protective compositions were determined at 37° C. and in CD CHO-A medium using a SensaDyne bubble tensiometer PC500L (Chem-Dyne Research Corporation, Mesa, Ariz.), which uses the maximum bubble pressure method. The time between initial bubble formation and attainment of maximum bubble pressure, “surface age”, can be varied by changing the gas flow rate. When the static surface tensions were measured, the surface age were adjusted to approximate 1 s, which was enough for small molecule surfactants to migrate to the bubble surface and potentially reach equilibrium. When the dynamic surface tensions were measured, the surface age was varied in the range of about 0.1 to about 3.0 seconds.

[3] = tested on: Chinese Hamster Ovary cells (CHO) cell line K1; assay: Cytotoxicity studies in T25 flasks (cell growth); format: cell-based; conditions: T-25 flasks, 48 hours; concentrations of FIG. 6
Protocol: as §1
Various candidate materials from the 96 well plate assays were further investigated using T25 flasks. The concentration of the candidate materials were tested at discrete concentration, which depended on the specific material, but at the highest concentration exceeded 0.1 CMC. In all cases, tested, a concentration at which cell growth began to be inhibited was detected.
Additional protective compositions, Nonyl maltopyranoside (NM) and CYMAL®-4 (CM4), were purchased from Anatace Inc. (Maumee, Ohio). The inoculation was 3.0×10^5 cells/ml. After 48 hours, the cells were harvested by Accutase® (Innovative Cell Technologies Inc., San Diego, Calif.) and counted by a hemocytometer. Besides cell growth, the morphology of cells was also monitored by an inverted microscope (Nikon Ecllipse TE2000-U, Melville, N.Y.).

[4] = Bubble size for two spargers (CCD camera); format: physicochemical
Protocol: (§3) Two spargers, a 22 gauge needle and a sintered glass (ACE glass, Vineland, N.J.) provided bubbles which produced, as expected, two different bubble sizes. The bubbles sizes were determined using a SCIMAX CCD digital camera (MVIA, Monaca, Pa.) and an infinity lens (ISCO Precision Optics GMBH, Germany) in a glass square column. The cell enrichment factor can be defined as the ratio of total LDH concentration in the foam liquid to that in the bulk liquid after lysing all the cells.
Consistent with the techniques used by Ma et al. (2004), the effectiveness of the protective compositions with respect to cell-bubble interactions was evaluated using the bubble collection device. Prior to the studies with cells, the size of the bubbles generated using a sintered glass sparger and a 22 gauge needle and two different concentrations of the PF-68® comparative material and the protective composition NM were determined.

CHO K1 cells = assay: Bubble-cell interactions, cell enrichment factor in foam (bubble collector, LDH); format: cell-based, Chinese Hamster
Protocol: An improved bubble collector device described by Ma et al. (2004) was used to quantitatively study cell entrapment in the foam. Specifically, this device can isolate bubble rupture events from foam formation vessel as well as maintain a plug-flow of bubbles from the foam layer into the bubble collection tube.
The cell concentration was determined using the lactate dehydrogenase (LDH) assay (CytoTox 96, Promega, Madison, Wis.). 9% (w/v) Triton X-100 solution was added to the cell suspension to be evaluated at a ratio of 1 to 10, and subsequently incubated at 37° C. for 45 minutes in order to lyse all the cells. A standard curve between LDH absorption and cell concentration by hemocytometer measurement was made for each set of experiments. The foam liquid volume was also measured by weighing the collect tube before and after experiments, assuming a liquid density of 1.0 g/ml.
For the bubble column studies, CHO K1 cells, grown in CD-CHO medium, were harvested during exponential phase of growth in spinner flasks. […]
as §3, with “The cell enrichment factor can be defined as the ratio of total LDH concentration in the foam liquid to that in the bulk liquid after lysing all the cells.” left out

red blood cells = conditions: cited from earlier work
[5] = Dynamic surface tension in cell culture medium; format: physicochemical; conditions: 0.28 g/L
Protocol: as §2

Row | CMC [2] | HEAD GROUP SIZE [2] | CMC SURFACE TENSION [2] | Compound | also measured
1 | 12.2 mM | – | – | CCCCCCCCCCOS(=O)(=O)[O-].[Na+] [SDeS, Sodium decyl sulfate] | –
2 | 6.4 mM | – | – | CCCCCCCCCC[N+](C)(C)[O-] [DDeAO, N,N-Dimethyldecyl amine N-oxide] | –
3 | 27.1 mM | 40 Å^2 | 32.5 DYN/CM | CCCCCCCCO[C@@H]1O[C@H](CO)[C@@H](O)[C@H](O)[C@H]1O [OG, n-Octyl-β-D-glucopyranoside] | Toxicity relative to maltose head group analogue of same alkyl chain length [1]: more toxic
4 | 6 mM | 59 Å^2 | 40.1 DYN/CM | CCCCCCCCCO[C@@H]1O[C@H](CO)[C@@H](O[C@H]2O[C@H](CO)[C@@H](O)[C@H](O)[C@H]2O)[C@H](O)[C@H]1O [NM, n-Nonyl-β-D-maltopyranoside] | Maximum concentration before inhibitory effects on cell growth was observed [3]: 1.0 g/L; Median Diameter of bubbles ([4]; 22 gauge needle (large bubble), 0.6 g/L): 2.7 mm; Median Diameter of bubbles ([4]; 22 gauge needle (large bubble), 1.0 g/L): 2.5 mm; Median Diameter of bubbles ([4]; sintered glass sparger (microbubble), 0.6 g/L): 159 μm; Median Diameter of bubbles ([4]; sintered glass sparger (microbubble), 1.0 g/L): 157 μm; Effect on cell enrichment factor (CHO K1 cells; 1.0 g/L): slightly decreases the enrichments factor further
5 | 24.5 mM | 61 Å^2 | 41.5 DYN/CM | CCCCCCCCO[C@@H]1O[C@H](CO)[C@@H](O[C@H]2O[C@H](CO)[C@@H](O)[C@H](O)[C@H]2O)[C@H](O)[C@H]1O [OM, n-Octyl-β-D-maltopyranoside] | Maximum concentration before inhibitory effects on cell growth was observed [3]: 3.5 g/L; Toxicity to red blood cells (red blood cells): less toxic to red blood cells than the OG comparative material
6 | 2.3 mM | 32 Å^2 | 31.5 DYN/CM | CCCCCCCCCCO[C@@H]1O[C@H](CO)[C@@H](O)[C@H](O)[C@H]1O [DG, n-Decyl-β-D-glucopyranoside] | Toxicity relative to maltose head group analogue of same alkyl chain length [1]: more toxic
7 | 85.6 mM | – | – | CCCCCCCCOS(=O)(=O)[O-].[Na+] [SOS, Sodium octyl sulfate] | –
8 | 11.0 mM | – | – | CCCCCCCCS[C@@H]1O[C@H](CO)[C@@H](O)[C@H](O)[C@H]1O [OT, n-Octyl-β-D-thioglucopyranoside] | –
9 | 7.6 mM | – | – | OC[C@H]1O[C@H](O[C@H]2[C@H](O)[C@@H](O)[C@H](OCCCCC3CCCCC3)O[C@@H]2CO)[C@H](O)[C@@H](O)[C@@H]1O [CM4, 4-Cyclohexyl-1-butyl-β-D-maltoside] | –
10 | 1.8 mM | 42 Å^2 | 38.9 DYN/CM | CCCCCCCCCCO[C@@H]1O[C@H](CO)[C@@H](O[C@H]2O[C@H](CO)[C@@H](O)[C@H](O)[C@H]2O)[C@H](O)[C@H]1O [DM, n-Decyl-β-D-maltopyranoside] | Maximum concentration before inhibitory effects on cell growth was observed [3]: 0.28 g/L; Time to achieve equilibrium surface tension [5]: approximately 0.5 second; Effect on decrease of the enrichment factor (CHO K1 cells; 0.28 g/L): less than PF-68® comparative material and the protective composition NM

Row | Compound | CMC [2] | HEAD GROUP SIZE [2] | CMC SURFACE TENSION [2] | also measured
11 | CCCCCCCCCCCCCCCC[N+](C)(C)C.[Br-] [CTAB, Hexadecyltrimethyl ammonium bromide] | 1.3 mM | – | – | Cytotoxicity (inhibition of cell growth, fluorescence intensity) [1]: most toxic to cells; Microscopic observation of cells [1]: completely lysed the cells
12 | CCCCCCCCCCCC[N+](C)(C)C.[Br-] [DTAB, Dodecyltrimethyl ammonium bromide] | 7.0 mM | – | – | Cytotoxicity (inhibition of cell growth, fluorescence intensity) ([1]; 0.01 CMC and 0.1 CMC, 48 hours): most toxic to cells; Microscopic observation of cells ([1]; at the lowest concentration): completely lysed the cells
13 | CCCCCCCCCCCC[N+](C)(C)[O-] [DDAO, N,N-Dimethyldodecyl amine N-oxide] | 2.0 mM | – | – | –
14 | CCCCCCCCCCCCOS(=O)(=O)[O-].[Na+] [SDS, Sodium dodecyl sulfate] | 2.3 mM | – | – | Cytotoxicity (inhibition of cell growth, fluorescence intensity) ([1]; 0.01 CMC and 0.1 CMC, 48 hours): inhibitory
